This note sets out measurements from patent EP4711361A1, “NITROGEN-CONTAINING HETEROCYCLIC COMPOUND AND USE THEREOF” (Jiangsu Deyuan Pharmaceutical Co.,Ltd., priority 2023, dated 2024).

One data set relates to MDR1-MDCKII cells. The data set is described as follows: Permeability test (MDR1-MDCKII monolayer, bidirectional transport). The conditions noted are these: 2 µM. The data set is classed as in vitro ADME. How it is done:
(§1) Experimental objective: The permeability and efflux ratio of the compound of the present disclosure were determined using the MDR1-MDCKII monolayer cell model to assess its membrane permeability and potential for P-gp-mediated efflux transport.
(§2) Experimental protocol: MDR1-MDCKII cells (obtained from the Netherlands Cancer Institute) were seeded in 96-well plates (obtained from Corning) at a cell density of 3.33 × 10^5 cells/mL and cultured for 4 to 7 days to form confluent cell monolayers. Hank's balanced salt solution containing 10 mM HEPES (pH 7.40) was used as the transport buffer. The test compound was evaluated for bidirectional transport at a concentration of 2 µM, with the DMSO concentration in the incubation system maintained below 1%. After adding the samples, the cell plate was incubated at 37±1°C, 5% CO2, and saturated humidity for 2.5 hours. All samples were quantitatively analyzed using the LC-MS/MS method. The apparent permeability coefficient (Papp, cm/s) and efflux ratio (ER) were calculated using the following formula. Apparent permeability coefficient (Papp, cm/s) was calculated using the following formula: Papp = (dCr/dt) x Vr / (A x C0). Herein, dCr/dt represents the cumulative concentration of the compound at the receiving end per unit time (µM/s); Vr is the volume of the solution at the receiving end (with solution volumes at the apical and basolateral ends being 0.075 mL and 0.250 mL, respectively); A is the relative surface area of the cell monolayer (0.143 cm^2); C0 is the initial concentration of the test substance at the dosing end (µM) or the peak area ratio of the reference substance. The efflux ratio was calculated using the following formula: ER = Papp (BA)/ Papp (AB). Table 7: Permeability test results of compounds

The nature of data set [1]: In vivo pharmacokinetics study in rats. To be noted: male SD rats, oral 2 mg/kg.
A short description of data set [2]: In vitro liver microsome metabolic stability study. To be noted: human liver microsomes 0.5 mg/mL, 1 µM compound, up to 60 minutes. A general note: Microsomes from liver hold many membrane-bound enzymes, among them those of drug oxidation.
A short description of data set [3]: In vivo pharmacokinetic study in cynomolgus monkeys. The conditions noted are these: male cynomolgus monkeys, oral 3 mg/kg.
Data set [4] can be described thus: Plasma protein binding rate test (equilibrium dialysis), human plasma. The conditions noted are these: 2 µM, equilibrium dialysis 4 hours, 37°C.
Data set [5] in a line: Plasma protein binding rate test (equilibrium dialysis), SD rat plasma. The conditions noted are these: 2 µM, equilibrium dialysis 4 hours, 37°C. A general note: Equilibrium dialysis compares concentrations on both sides of a semipermeable membrane.
Data set [6] in a line: Plasma protein binding rate test (equilibrium dialysis), cynomolgus monkey plasma. To be noted: 2 µM, equilibrium dialysis 4 hours, 37°C.
Data set [7] in a line: Permeability test (MDR1-MDCKII monolayer, bidirectional transport). The conditions noted are these: dog; for efflux ratio at 2.5 h, 2 µM: MDCK-MDR1, pH 7.4, ER = Papp (BA)/ Papp (AB); for Papp A→B at 2.5 h, 2 µM: MDCK-MDR1, pH 7.4, pH 7.40, 2.5 hours, A to B, read-out: Apparent permeability coefficient (Papp (AB), 10^-6 cm/s). The format is in vitro ADME. The method, then:
as §1, §2

A further data set can be described thus: in vivo. The conditions noted are these: cynomolgus monkey, po, 1 mg/kg.
The next data set in a line: in vitro. To be noted: human, microsomes.

As a reminder, the Cmax is the peak of the concentration-time curve. On to `CCC(=O)N[C@@H]1CCCc2c(-c3ccc4c(ccc(=O)n4C)c3)cncc21` (single isomer, unassigned) [Compound 001], for which the “Efflux ratio (ER)” value with MDR1-MDCKII cells (ER = Papp (BA)/ Papp (AB), 150 min) stood at 1.76. In addition, the “Apparent permeability coefficient (Papp (AB), 10^-6 cm/s)” value in the data set with MDR1-MDCKII cells (pH 7.40, 2.5 hours, A to B) is recorded as 17.2 10^-6 cm/s. For the same compound, the “F (%)” value in data set [1] stood at 80%. For the same compound, in data set [1] (plasma), the “AUC0-24h” value came out at 59.097 µM·h, the concentration peaked (Cmax) at 7.63 µM and the “T1/2” value was 4.61 h. Moreover, in [2], the “Intrinsic hepatic clearance CLint(liver)” value is listed as below 8.6 mL/min/kg. For the same compound, in [3], the “F (%)” value was 120%. Further, in data set [3] (plasma), the “AUC0-24h” value came out at 23.174 µM·h, the Cmax is 4 µM and the “T1/2” value is 4.99 h. In addition, the “Human plasma protein binding rate (%)” value in data set [4] is given as 76.1%. Besides, in data set [5], the “Plasma protein binding rate (%) in SD rats” value amounted to 92.1%. Further, the “Plasma protein binding rate (%) in cynomolgus monkeys” value in data set [6] was found to be 74.6%.

As usually defined, the efflux ratio is a quotient of directional permeabilities that is used to spot active efflux. What is called AUC(0-t) is the area under the concentration-time curve up to a stated or last time point. One may read the bioavailability as the share of a dose that reaches the circulation, judged against a reference dose that is usually intravenous. What is called half-life is the time in which the quantity being followed falls by half. A word on the CLint scaled: it is a measure of how fast metabolising enzymes remove a compound, apart from limits set by blood flow. As for `CCC(=O)NC1CCCc2c(-c3cc4c(s3)N(C)C(=O)CC4)cncc21` (single isomer, unassigned) [Compound 017], in [7], the efflux ratio at 2.5 h, 2 µM is 0.95 and the Papp A→B at 2.5 h, 2 µM was 23.2 ×10⁻⁶ cm/s. In “in vivo”, this compound showed an AUC(0-t) at 24 h of 7.29 µM·h, a Cmax of 1070 nM, a bioavailability of 66% and a half-life of 318 min. In “in vitro”, this compound returned a CLint scaled at 1 µM below 8.6 mL/min/kg.

For `CCC(=O)NC1CCCc2c(-c3cc4ccc(=O)n(C)c4s3)cncc21` (single isomer, unassigned) [Compound 023], in data set [7], the efflux ratio at 2.5 h, 2 µM came to 1.28 and the Papp A→B at 2.5 h, 2 µM worked out at 20.8 ×10⁻⁶ cm/s. In the data set “in vivo”, this compound showed an AUC(0-t) at 24 h of 8.92 µM·h, a Cmax of 1320 nM, a bioavailability of 76.5% and a half-life of 288 min. This compound also showed a CLint scaled at 1 µM in the data set “in vitro” below 8.6 mL/min/kg.
